The record followed here is article PMC12030059, “Mechanistic Advances in the Therapeutic Application of Bixin for Lung Inflammation In Vitro and In Vivo” (Pharmaceuticals, 2025).

For this assay, the system named is C57BL/6 mice challenged with intranasal LPS. Nature of the assay: Intranasal LPS lung inflammation in mice, BAL cytokine ELISA. The format is in vivo. The following applies: 200 mg/kg gavage, 5 days. As to the method: Eight-week-old male C57BL/6 mice were obtained from the Multidisciplinary Center for Biological Research in Laboratory Animal Science (CEMIB/UNICAMP, Campinas, Brazil). The mice were provided with Purina chow ad libitum (Nuvilab, Curitiba, Brazil) and had unrestricted access to water in a controlled environment maintained at 22 ± 2 °C, 50–70% relative humidity, and a 12 h light/dark cycle (EB-273B, Insight Equipamentos Ltd., São Paulo, Brazil). They were acclimatized for two weeks before the experimental procedures. All experimental protocols were approved by the local Animal Ethics Committee (096/19).
To evaluate the pharmacological effects of potassium bixinate, the animals were divided into four groups (n = 5–7): (1) Control, (2) KBx, (3) LPS, and (4) LPS + KBx. For five consecutive days, animals in groups 2 and 4 were treated by oral gavage with 200 mg/kg of potassium bixinate diluted in PBS in a final volume of 100 μL, while animals in groups 1 and 3 were treated with 100 μL of PBS. On the sixth day, animals in groups 3 and 4 were challenged intranasally with 60 μg of LPS (extracted from Escherichia coli O55:B5) diluted in PBS (10 μL), while animals in groups 1 and 2 received 10 μL of PBS intranasally. Sixteen hours after LPS/PBS instillation, the animals were euthanized by cervical dislocation under isoflurane sedation.
Immediately following euthanasia, BAL was collected using an intratracheal cannula. The lavage was performed with 1.5 mL of saline solution (3 × 0.5 mL). The collected lavage fluid was centrifuged at 600× g for 10 min, and the supernatant was stored at −80 °C for subsequent enzyme-linked immunosorbent assay (ELISA) analysis.
Cytokine levels (IL-10 and KC; #900-K53K and #900-K127K) were quantified in BAL samples using an ELISA kit, following the manufacturer’s instructions (PeproTech, Neuilly Sur-Seine, France). A sample volume of 25 μL was used without dilution. The enzymatic reaction was initiated with peroxidase and a specific substrate, and the reaction was stopped before measuring absorbance at 450 nm and 570 nm using a Varioskan LUX spectrometer (ThermoFisher Scientific, Waltham, MA, USA). A calibration curve was generated using standard concentrations of the target protein, with the method showing linearity across a range of 2000–0 pg/mL.
In general terms: In an ELISA, binding on a coated surface is turned into a signal by an enzyme label.

With potassium bixinate [KBx], where the note is “no LPS”, the “IL-10 levels in BAL, KBx alone” value is listed as “comparable to the control” and the “KC levels in BAL, KBx alone vs control” value was “no significant effect on KC levels”. For the same substance, for the setting “then LPS 60 μg i.n., 16 h”, the “IL-10 levels in BAL, LPS + KBx” value is recorded as “can increase IL-10 production in the presence of LPS” and the “KC levels in BAL, LPS + KBx vs LPS” value is recorded as “significantly lower compared to the LPS group”.
